Data as given in patent US8492391B2, “Substituted 6-(2-hydroxybenzylamino)purine derivatives, their use as medicaments and compositions containing these derivatives” (Univerzita Palackeho V Olomouci, priority 2009, dated 2013).
Entries after “also recorded” stand apart in the source; their conditions may differ.

Assays:
p53 in RPMI-8226 cells = assay: Immunoblotting in RPMI-8226 cells with temperature-sensitive p53 (E285K) at permissive and restrictive temperature; type: cell-based, human; details: RPMI-8226 cells, 30° C. versus restrictive temperature
Description: (§1) For immunoblotting, cell were detached with rubber policeman and washed three times with ice-cold PBS and lysed in buffer (50 mM Tris, pH 7.4, 250 mM NaCl, 5 mM EDTA, 50 mM NaF, 1 mM Na3VO4, 1% Nonidet P40) containing mixture of protease and phosphatase inhibitors (Sigma-Aldrich, USA). 20 μg of total proteins were separated by SDS-polyacrylamide gel electrophoresis (SDS-PAGE) and transferred onto nitrocellulose membranes. Membranes were blocked in 5% milk and 0.1% Tween 20 in PBS and probed overnight with specific monoclonal antibodies or rabbit polyclonal sera. […] All primary antibodies were diluted in PBS containing 5% powdered milk; 0.1% Tween 20. Peroxidase conjugated rabbit anti-mouse immunoglobulin or porcine anti-rabbit immunoglobulin antisera (DAKO, Denmark) were used as the secondary antibodies and visualised with ECL reagents (Amersham-Pharmacia, Little Chalfont, UK).
Then, we also determined effect of the compounds on the cell lines expressing some temperature-sensitive mutants of p53. For example, in BT474 and RPMI-8226 cells bearing temperature-sensitive mutant of p53 (E285K), p53 protein switches between mutant and wild-type conformation in a temperature-dependent manner. At restrictive (37° C.) temperature mutated p53 protein is expressed, while after shift to a permissive (30° C.) temperature p53 is folded correctly and functional. To analyze the functional involvement of p53 in the efficiency of the treatment with the compounds, we cultivated RPMI-8226 cells independently at two different temperatures (restrictive or permissive), and exposed them to increasing doses of selected compounds. The cell lysates were prepared and the levels of cell cycle regulators were analysed by immunoblotting.

β-adrenergic receptors = assay: Modulation of the activity of β-adrenergic receptors (isoproterenol-induced cAMP synthesis in C6 glioma); type: cell-based; details: rat C6 glioma, cAMP synthesis induced by 5 μM (−) isoproterenol, 30 min, simultaneous addition
Description: Mechanism of action of novel compounds is presented on FIG. 2. […] Incubation was at 37° C. in a humidified atmosphere. Assays were performed in the logaritmic growth phase at a density of 2.5×10^5 cells/cm^2. Intracellular cAMP synthesis was induced by addition of 5 μM (−) isoproterenol. After 30 min incubation at 37° C. the medium was removed and the cellular amount of cAMP determined using the cAMP-enzyme immunoassay kit of Amersham. The I50 is determined from a dose-response curve in duplicate. The effect of several novel substituted 6-(2-hydroxybenzylamino)purine derivatives was measured after simultaneous addition with isoproterenol.
As P2Y1-like and A2 purinergic receptors, negatively and positively coupled to adenylate cyclase respectively, are present on rat C6 glioma. It has to be determined if the modulation of the synthesis of cAMP is due to inhibition of the activation of β-adrenergic receptors by isoproterenol are due to activation of purinergic receptors.

[1] = tested on: p53, p21^WAF1, Mcl-1 in MCF-7 cells; assay: Immunoblotting of p53, p21WAF1 and Mcl-1 in MCF-7 cells; type: cell-based, human; details: MCF7, 24 h, concentration dependent, immunoblotting
Description: For immunoblotting, cell were detached with rubber policeman and washed three times with ice-cold PBS and lysed in buffer (50 mM Tris, pH 7.4, 250 mM NaCl, 5 mM EDTA, 50 mM NaF, 1 mM Na3VO4, 1% Nonidet P40) containing mixture of protease and phosphatase inhibitors (Sigma-Aldrich, USA). 20 μg of total proteins were separated by SDS-polyacrylamide gel electrophoresis (SDS-PAGE) and transferred onto nitrocellulose membranes. Membranes were blocked in 5% milk and 0.1% Tween 20 in PBS and probed overnight with specific monoclonal antibodies or rabbit polyclonal sera. Primary antibodies specific for p53 (DO-1, in house), p21^WAF1 (118, in house), PARP-1 (2C10, Sigma-Aldrich St Louis, Mo., USA), Mcl-1 (S-19, Santa Cruz, USA), all used at 1 μg/ml. All primary antibodies were diluted in PBS containing 5% powdered milk; 0.1% Tween 20. Peroxidase conjugated rabbit anti-mouse immunoglobulin or porcine anti-rabbit immunoglobulin antisera (DAKO, Denmark) were used as the secondary antibodies and visualised with ECL reagents (Amersham-Pharmacia, Little Chalfont, UK).
The induction of p53 protein was apparent in 4 hrs but enhanced level of p21^WAF1 protein was observed only 12 hours after treatment with compound 128 (FIG. 5). The periods of time 12 and 24 hrs were chosen, since the level of protein expression reached a steady state.

p53 = assay: p53-dependent transcription, β-galactosidase reporter in Arn8 cells; type: cell-based, human; design: key to p53 (effect): induction of p53 protein: ++: very strong; +: weak; −: no effect
Source text: Protein p53, accumulated in nuclei upon treatment by the compounds, then leads to trans-activation of natural cell cycle inhibitor p21^WAF1, further blocking the cell cycle. […] This allows qualitative as well as quantitative measurement of CDK inhibitors-induced p53 transcriptional activity via β-galactosidase assay. Then, the effect will be verified in treated cells by immunoblotting of proteins expressed under the control of p53. β-galactosidase activity of human melanoma cell line Arn8 was determined as described. […] Alternatively, β-galactosidase activity was quantified by measuring fluorescence of methylumbelliferyl-β-D-galactopyranoside cleavage product. Cell lines established from the human breast carcinoma (MCF-7) and the human melanoma (Arn8) cell lines were cultured in Dubecco's Modified Eagle Medium (DMEM) supplemented with 10% foetal bovine serum.
Effects of prepared compounds on activation of p53 protein were analysed in human melanoma cell line Arn8. […] The total β-galactosidase activity in Arn8 cells was quantified using a fluorimetric assay.

[2] = tested on: C-terminal domain of RNA polymerase II (serine 2 and serine 5 phosphorylation); assay: Immunoblotting of RNA polymerase II CTD phosphorylation (CDK9 activity in cells), MCF-7; type: cell-based, human; details: MCF-7 cells
Description: as §1, with “Effect of compounds on CDK9 activity in cells was monitored by site-specific phosphorylations of C-terminal domain of RNA polymerase II, a substrate of CDK9, by means of immunoblotting. For” for “For”, “sera. Primary antibodies specific for RNA polymerase II (all from Santa Cruz Biotechnology, California, USA) included: (i) N-20 used at 1 μg/ml, (ii) H14, specific for form phosphorylated at phosphoserine 5, used at 6 μg/ml and (iii) H5, specific for form phosphorylated at phosphoserine 2 used at 4 μg/ml.” for “sera.”, “UK). […]” for “UK).”

SMILES: CC[C@H](CO)Nc1nc(NCc2ccccc2)c2ncn(C(C)C)c2n1 [ROSC, roscovitine, reference compound]
- expression of anti-apoptotic protein Mcl-1 (p53 in RPMI-8226 cells): suppressed more efficiently at 30 °C
- EFFECT (modulation of the activity of β-adrenergic receptors) (β-adrenergic receptors): inactive
- expression of p53, p21^Waf1 and Mcl-1 [1]: accumulation of tumor suppressor protein p53, expression of p53-regulated CDK inhibitor p21^Waf1 and downregulation of antiapoptotic protein Mcl-1
- p53 (effect): induction of p53 protein (p53; Arn8 cells stable transfected with a β-galactosidase reporter gene): ++
- activation of p53-dependent transcription (p53; Arn8 reporter cell line, β-galactosidase reporter activity): proved to activate p53-dependent transcription
- levels of serine 2 and serine 5 phosphorylation of RNA polymerase II CTD [2]: substantially reduced; also recorded: is inhibited
